Experimental findings from ChEMBL document CHEMBL2203282, “1,4-naphthoquinone cations as antiplasmodial agents: hydroxy-, acyloxy-, and alkoxy-substituted analogues” (ACS Med Chem Lett, 2012) are described below.

In the experiment the test system is Plasmodium falciparum. Briefly: Antiplasmodial activity against chloroquine-resistant Plasmodium falciparum W2 infected in human erythrocytes assessed as reduction in parasitemia after 48 hrs by flow cytometry analysis. The class given is functional, organism-based. The following applies: W2, 48 h.

Bounds are passed on as bounds.

With `CCCCCCCCCCC1=C(C)C(=O)c2ccccc2C1=O`, the concentration for half-maximal inhibition (IC50) – broadly, the concentration that inhibits the measured activity by half – is over 10000 nM. Then `CC(=O)OC1=C(CCCCC[P+](c2ccccc2)(c2ccccc2)c2ccccc2)C(=O)c2ccccc2C1=O`, with 1900 nM.

As for `CCCCCCCCCCC1=C(OC(C)=O)C(=O)c2ccccc2C1=O`, the IC50 came out at 392 nM.

Turning to `CCCCCCCCCCC1=C(O)C(=O)c2ccccc2C1=O`, the IC50 worked out at 339 nM. Then `CC1=C(OC(=O)CCC[P+](c2ccccc2)(c2ccccc2)c2ccccc2)C(=O)c2ccccc2C1=O`, with 4600 nM. Consider `CC1=C(OC(=O)CCCCCCCCCC[P+](c2ccccc2)(c2ccccc2)c2ccccc2)C(=O)c2ccccc2C1=O`, for which the IC50 worked out at 1380 nM. Turning to `CC1=C(OCC(=O)OCCC[P+](c2ccccc2)(c2ccccc2)c2ccccc2)C(=O)c2ccccc2C1=O`, the IC50 amounted to 1230 nM. For the compound `CC1=C(OCCCCCCCCCC[P+](c2ccccc2)(c2ccccc2)c2ccccc2)C(=O)c2ccccc2C1=O`, the concentration for half-maximal inhibition (IC50) was determined as 119 nM. For the compound `CC1=C(OCCCCCC[P+](c2ccccc2)(c2ccccc2)c2ccccc2)C(=O)c2ccccc2C1=O`, the half-inhibitory concentration (IC50) was found to be 42.7 nM. To `CC1=C(OCCC[P+](c2ccccc2)(c2ccccc2)c2ccccc2)C(=O)c2ccccc2C1=O` belongs 41.9 nM.

In the case of `O=C1C=C(OCCC[P+](c2ccccc2)(c2ccccc2)c2ccccc2)C(=O)c2ccccc21`, the IC50 was 40 nM.

As for `O=C1C=C(OCCCCCC[P+](c2ccccc2)(c2ccccc2)c2ccccc2)C(=O)c2ccccc21`, the 50% inhibitory concentration (IC50) was found to be 28.5 nM. To `O=C1C(Cc2ccc(Cl)cc2)=C(OCCCCCC[P+](c2ccccc2)(c2ccccc2)c2ccccc2)C(=O)c2ccccc21` belongs 49.5 nM; to `O=C1C(Cc2ccccc2)=C(OCCCCCC[P+](c2ccccc2)(c2ccccc2)c2ccccc2)C(=O)c2ccccc21`, 49.1 nM. With `O=C1C(OCCCCCC[P+](c2ccccc2)(c2ccccc2)c2ccccc2)=C(C2CCCCC2)C(=O)c2ccccc21`, the IC50 turned out to be 47.9 nM. As for `O=C1C(Cc2ccccc2)=C(OCCC[P+](c2ccccc2)(c2ccccc2)c2ccccc2)C(=O)c2ccccc21`, the IC50 was determined as 46.7 nM. To `O=C1C(OCCC[P+](c2ccccc2)(c2ccccc2)c2ccccc2)=C(C2CCCCC2)C(=O)c2ccccc21` belongs 42.3 nM; to `COc1ccc(C2=C(OCCC[P+](c3ccccc3)(c3ccccc3)c3ccccc3)C(=O)c3ccccc3C2=O)cc1`, 17.4 nM. Then `CC1=C(OCCC[n+]2ccccc2)C(=O)c2ccccc2C1=O`, with 167 nM. To `CC1=C(OCCC[n+]2ccn(C)c2)C(=O)c2ccccc2C1=O` belongs 165 nM. With `CC(=O)OC1=C(c2ccc(OCCCCCCCCCC[P+](c3ccccc3)(c3ccccc3)c3ccccc3)cc2)C(=O)c2ccccc2C1=O`, the IC50 was 7120 nM. Then `O=C1C(O)=C(c2ccc(OCCC[P+](c3ccccc3)(c3ccccc3)c3ccccc3)cc2)C(=O)c2ccccc21`, with 6730 nM. In the case of `O=C1C(O)=C(c2ccc(OCCCCCCCCCC[P+](c3ccccc3)(c3ccccc3)c3ccccc3)cc2)C(=O)c2ccccc21`, the half-maximal inhibitory concentration (IC50) came out at 6640 nM. Then `CC(=O)OC1=C(c2ccc(OCCCC[P+](c3ccccc3)(c3ccccc3)c3ccccc3)cc2)C(=O)c2ccccc2C1=O`, with 5440 nM. Take `O=C1C(O)=C(CCCCC[P+](c2ccccc2)(c2ccccc2)c2ccccc2)C(=O)c2ccccc21`: the IC50 was determined as 4080 nM. Then `CCCC[P+](CCCC)(CCCC)CCCCCCCCCCC1=C(O)C(=O)c2ccccc2C1=O`, with 3860 nM; and `CC(=O)OC1=C(CCCCCCCCCC[P+](c2ccccc2)(c2ccccc2)c2ccccc2)C(=O)c2ccccc2C1=O`, with 3590 nM.

In the case of `O=C1C(O)=C(CCCCCCCCCC[P+](Cc2ccccc2)(Cc2ccccc2)Cc2ccccc2)C(=O)c2ccccc21`, the IC50 was 3280 nM. Then `O=C1C(O)=C(CCCCCCCCCC[P+](c2ccccc2)(c2ccccc2)c2ccccc2)C(=O)c2ccccc21`, with 2180 nM; and `C[C@@H]1CC[C@H]2[C@@H](C)C(=O)O[C@@H]3O[C@@]4(C)CC[C@@H]1[C@]32OO4` [ARTEMISININ], with 18.1 nM; and `O=C1C(O)=C([C@H]2CC[C@H](c3ccc(Cl)cc3)CC2)C(=O)c2ccccc21` [ATOVAQUONE], with 0.5 nM.
